# System: human hair dermal papilla cells (HHDPC)
# Test: MTT cytotoxicity test of cADPR in human hair dermal papilla cells
# Type: cell-based
# Conditions: cADPR in the concentration range according to the invention (0.01 to 2 ppm tested), 48 hours
# Description: To confirm cytotoxicity of cADPR in human hair dermal papilla cells (HHDPC), MTT assay which is a representative method for measuring cytotoxicity and determines cytotoxicity by measuring mitochondrial reducing power by dehydrogenase action was conducted.
# Human hair dermal papilla cells were cultured in an HDP kit medium (Human hair dermal papilla cell media kit) at 37° C. in a 5% CO2 incubator (manufactured by Thermo Fisher Scientific, USA).
# The cultured cells were dispensed into a 24-well plate at a concentration of 3×10^4 cells/well. After 18 hours, the cADPR mixture solutions according to Preparation Examples 1-1 to 1-6 (0.01, 0.05, 0.1, 0.5, 1 and 2 ppm, respectively) were added to each well. Then, the cells were cultured in the 5% CO2 incubator at 37° C. for 48 hours. After 48 hours of the incubation, each well was washed once with PBS (phosphate buffered saline) solution, and added with 50 μl of 5 mg/mL MTT reagent (Sigma, USA) and 450 μl of fresh medium. The wells were incubated for 2.5 hours and then supernatants were removed.
smiles,measurement,value
"N=c1c2ncn3c2ncn1[C@@H]1O[C@H](COP(=O)(O)OP(=O)(O)OC[C@H]2O[C@@H]3[C@H](O)[C@@H]2O)[C@@H](O)[C@H]1O [cADPR, Cyclic ADP Ribose]",cytotoxicity,no cytotoxicity was observed

# Source: patent US11471474B2, “Pharmaceutical or cosmetic composition for preventing or treating hair loss or promoting hair growth” (priority 2018, dated 2022)
